{
  "source": "patent US12208072B2",
  "about": "“Compositions for removing necrotic or infected tissues from body surface lesions and from oral cavity” (DEBx Medical Holding B.V., priority 2019, dated 2025)",
  "origin": "cited, not measured here",
  "key": {"[1]": {"details": "for Ka1: first dissociation constant; for Ka2: second dissociation constant"}, "[2]": {"details": "25° C."}},
  "data": [
    {"molecule": "OB(O)O", "note": "[Boric]", "values": [
      {"measurement": "Ka1", "setting": "[1]", "value": "5.81 × 10^−10"}
    ]},
    {"molecule": "O=C(O)O", "note": "[Carbonic]", "values": [
      {"measurement": "Ka1", "setting": "[1]", "value": "4.44 × 10^−7"},
      {"measurement": "Ka2", "setting": "[1]", "value": "4.69 × 10^−11"}
    ]},
    {"molecule": "OCl", "note": "[Hypochlorous]", "values": [
      {"measurement": "Ka1", "setting": "[1]", "value": "3.0 × 10^−8"}
    ]},
    {"molecule": "O=C(O)CC(O)C(=O)O", "note": "(stereo not drawn) [Malic]", "values": [
      {"measurement": "Ka1", "setting": "[1]", "value": "3.48 × 10^−4"},
      {"measurement": "Ka2", "setting": "[1]", "value": "8.00 × 10^−6"}
    ]},
    {"molecule": "O=[N+]([O-])O", "note": "[Nitric]", "values": [
      {"measurement": "pKa", "setting": "[2]", "value": "−1.4"}
    ]},
    {"molecule": "OP(O)O", "note": "[Phosphorous]", "values": [
      {"measurement": "Ka1", "setting": "[1]", "value": "3 × 10^−2"},
      {"measurement": "Ka2", "setting": "[1]", "value": "1.62 × 10^−7"}
    ]},
    {"molecule": "O=C(O)CCC(=O)O", "note": "[Succinic]", "values": [
      {"measurement": "Ka1", "setting": "[1]", "value": "6.21 × 10^−5"},
      {"measurement": "Ka2", "setting": "[1]", "value": "2.31 × 10^−6"}
    ]},
    {"molecule": "Anilinium ion", "values": [
      {"measurement": "Ka1", "setting": "[1]", "value": "2.50 × 10^−5"}
    ]}
  ]
}
